From patent US20180161425A1, “NOVEL PROTEIN STRUCTURE USED FOR EFFICIENT ANTIBODY PRODUCTION IN IMMUNIZATION” (priority 2014, published 2018)
Values joined by “and” are separate entries in the source; they are usually repeats but may differ in a detail not shown here. Equal entries are not always repeated.

Experiments:
MDCK cells = assay type: cell-based
MCP-1 = tested on: MCP-1; set-up: species or system mice; conditions: mouse, in vivo

| Substance | cell binding and internalization of FITC labeled peptide (MDCK cells) | cell binding activity when compared to AH2 peptide (MDCK cells) [%] | further results |
| --- | --- | --- | --- |
| DRLFFKCIYRRFKYGLKRG [AH5] | did not bind to the membrane as well as AH2, they did all bind and were internalized to the cell at different levels | – | – |
| DRLFFKCIYRRLKYGLKRG [AH3] | did not bind to the membrane as well as AH2, they did all bind and were internalized to the cell at different levels | – | – |
| DRLFFKCVYRLFKHGLKRG [AH4] | did not bind to the membrane as well as AH2, they did all bind and were internalized to the cell at different levels | – | – |
| KRLFKLSYIETRYMASDK [SWS-AH] | – | 24 | – |
| MHSATAAQLETLRLFKFP [ANMV-AH] | – | 15 | – |
| MPRLFKIYAKNYFLTYPN [TYLCV-AH] | – | 25 | – |
| RTLSLLRRLFFKSDLGFL [AHV-AH] | – | 40 | – |
| flagellin | – | – | plasma MCP-1 level (MCP-1): 3000 pg/mL and 2600 pg/mL |
